The text below walks through data of patent publication US11242337B2, “Compounds useful for treating gastrointestinal tract disorders” (Ardelyx, Inc., priority 2017, dated 2022).

Some results are limits rather than exact numbers.

The target in experiment [1] is T1, NHE3 (Homo sapiens, UniProt P48764).
T1 construct: expressed in transfected cells
T1 sequence (P48764 26-834): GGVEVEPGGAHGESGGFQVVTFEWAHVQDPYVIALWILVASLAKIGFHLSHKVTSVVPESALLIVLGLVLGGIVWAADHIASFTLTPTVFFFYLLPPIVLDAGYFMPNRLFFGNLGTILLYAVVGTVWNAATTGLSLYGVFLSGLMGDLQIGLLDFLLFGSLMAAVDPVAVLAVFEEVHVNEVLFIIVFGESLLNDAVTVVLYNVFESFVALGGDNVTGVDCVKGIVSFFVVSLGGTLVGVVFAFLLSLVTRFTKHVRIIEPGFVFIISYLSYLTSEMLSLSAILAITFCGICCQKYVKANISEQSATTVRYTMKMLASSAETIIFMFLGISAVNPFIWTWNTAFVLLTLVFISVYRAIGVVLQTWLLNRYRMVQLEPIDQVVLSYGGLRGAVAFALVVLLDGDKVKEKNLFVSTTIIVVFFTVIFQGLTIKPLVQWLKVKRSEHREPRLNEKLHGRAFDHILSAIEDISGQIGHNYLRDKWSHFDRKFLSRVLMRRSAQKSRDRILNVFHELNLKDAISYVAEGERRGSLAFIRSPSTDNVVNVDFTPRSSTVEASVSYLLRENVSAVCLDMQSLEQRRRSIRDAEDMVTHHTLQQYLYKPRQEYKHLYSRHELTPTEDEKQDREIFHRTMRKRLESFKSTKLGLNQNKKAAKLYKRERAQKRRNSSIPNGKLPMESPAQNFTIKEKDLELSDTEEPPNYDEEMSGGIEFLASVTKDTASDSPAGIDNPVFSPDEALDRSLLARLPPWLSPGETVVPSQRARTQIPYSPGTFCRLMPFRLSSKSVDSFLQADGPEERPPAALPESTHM
T1 sequence (Q99653 2-195 partner limits assumed): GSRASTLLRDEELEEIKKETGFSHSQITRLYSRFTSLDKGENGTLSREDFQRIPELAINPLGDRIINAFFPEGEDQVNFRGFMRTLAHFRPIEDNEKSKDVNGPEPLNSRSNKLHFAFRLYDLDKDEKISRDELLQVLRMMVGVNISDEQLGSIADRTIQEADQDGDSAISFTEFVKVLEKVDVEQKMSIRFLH
The experiment is described as follows: Cell-based assay of NHE-3 activity (pre-incubation inhibition), human. The following applies: human Preincubation; for pIC50 / IC50: 0-30 μM test compound. In a few lines: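 PS120 fibroblasts stably expressing human NHE3 and NHERF2, loaded 30 min at 37 °C with 5 μM BCECF-AM in NH4Cl buffer, then acidified 10 min at room temperature in Na+-free buffer with 0–30 μM compound. Initial rate of BCECF fluorescence ratio change (FLIPR) per minute taken as Na+/H+ activity.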

Experiment [2] addresses T1, NHE3. The experiment is described as follows: Cell-based assay of NHE-3 activity (persistent inhibition), human. The following applies: human Persistence, 60 min incubation then washout. The method in brief: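 PS120 fibroblasts expressing human NHE3 with NHERF2 exposed to 0-30 μM compound for 60 min at RT, then washed out; cells acid-loaded by NH4Cl prepulse with BCECF-AM and Na+-free buffer. Na+-driven pH recovery started 10 min post-washout; initial rate of BCECF ratio change (FLIPR) taken as activity.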

Take `Cc1cc(S(=O)(=O)N2CC[C@@H](COc3ccnc(CNC(=O)NCCCCNC(=O)NCc4cc(OC[C@@H]5CCN(S(=O)(=O)c6ccc(O[C@H]7c8cc(Cl)cc(C#N)c8C[C@@H]7N(C)C)c(C)c6)C5)ccn4)c3)C2)ccc1O[C@H]1c2cc(Cl)cc(C#N)c2C[C@@H]1N(C)C` [Example 51, 3-[(4-[[(3R)-1-[(4-[[(1S,2S)-6-Chloro-4-cyano-2-(dimethylamino)-2,3-dihydro-1H-inden-1-yl]oxy]-3-methylbenzene)sulfonyl]pyrrolidin-3-yl]methoxy]pyridin-2-yl)methyl]-1-[4-([[(4-[[(3R)-1-[(4-[[(1S,2S)-6-chloro-4-cyano-2-(dimethylamino)-2,3-dihydro-1H-inden-1-yl]oxy]-3-methylbenzene)sulfonyl]pyrrolidin-3-yl]methoxy]pyridin-2-yl)methyl]carbamoyl]amino)butyl]urea]: at NHE3 [1], the “% inhibition” value was “B (40-70%)” and the pIC50 entry is recorded as “C (NHE3 pIC50 > 7)”. Further, at NHE3 [2], the “% inhibition” value is reported as “B (40-70%)” and the pIC50 result is given as “C (NHE3 pIC50 > 7)”.
Turning to `Cc1cc(S(=O)(=O)N[C@H]2CCN(CCOCCNC(=O)NCCCCNC(=O)NCCOCCN3CC[C@H](NS(=O)(=O)c4ccc(O[C@H]5c6cc(Cl)cc(C#N)c6C[C@@H]5N(C)C)c(C)c4)C3)C2)ccc1O[C@H]1c2cc(Cl)cc(C#N)c2C[C@@H]1N(C)C` [Example 54, 3-(2-[2-[(3S)-3-[(4-[[(1S,2S)-6-Chloro-4-cyano-2-(dimethylamino)-2,3-dihydro-1H-inden-1-yl]oxy]-3-methylbenzene)sulfonamido]pyrrolidin-1-yl]ethoxy]ethyl)-1-(4-[[(2-[2-[(3S)-3-[(4-[[(1S,2S)-6-chloro-4-cyano-2-(dimethylamino)-2,3-dihydro-1H-inden-1-yl]oxy]-3-methylbenzene)sulfonamido]pyrrolidin-1-yl]ethoxy]ethyl)carbamoyl]amino]butyl)urea], the entries for the “% inhibition” value at NHE3 [1] and at NHE3 [2] were “C (>70%)” and “B (40-70%)”, respectively. Besides, the IC50 at NHE3 [1] and on NHE3 [2] was < 100 nM throughout.
For the compound `N[C@@H]1CCCN([C@H]2Cc3c(Cl)cc(Cl)cc3[C@@H]2Oc2ccc(S(=O)(=O)NCCOCCOCCn3cc(CNC(=O)NCCCCNC(=O)NCc4cn(CCOCCOCCNS(=O)(=O)c5ccc(O[C@H]6c7cc(Cl)cc(Cl)c7C[C@@H]6N6CCC[C@@H](N)C6)cc5)nn4)nn3)cc2)C1` [Example 56, 1-([1-[2-(2-[2-[(4-[[(1S,2S)-2-[(3R)-3-Aminopiperidin-1-yl]-4,6-dichloro-2,3-dihydro-1H-inden-1-yl]oxy]benzene)sulfonamido]ethoxy]ethoxy)ethyl]-1H-1,2,3-triazol-4-yl]methyl)-3-(4-[[([1-[2-(2-[2-[(4-[[(1S,2S)-2-[(3R)-3-aminopiperidin-1-yl]-4,6-dichloro-2,3-dihydro-1H-inden-1-yl]oxy]benzene)sulfonamido]ethoxy]ethoxy)ethyl]-1H-1,2,3-triazol-4-yl]methyl)carbamoyl]amino]butyl)urea], at NHE3 [1], the “% inhibition” value was “C (>70%)” and the IC50 (as a rule, the concentration that gives 50% inhibition) is < 100 nM. Also, on NHE3 [2], the “% inhibition” value is listed as “C (>70%)” and the IC50 is < 100 nM.
`NC1CCCN(C2Cc3c(Cl)cc(Cl)cc3C2Oc2ccc(S(=O)(=O)NCCOCCOCCn3cc(CNC(=O)C(O)C(O)C(O)C(O)C(=O)NCc4cn(CCOCCOCCNS(=O)(=O)c5ccc(OC6c7cc(Cl)cc(Cl)c7CC6N6CCCC(N)C6)cc5)nn4)nn3)cc2)C1` [Example 57, (2R,3S,4R,5S)—N^1,N^6-Bis([1-[2-(2-[2-[(4-[[(1S,2S)-2-[(3R)-3-aminopiperidin-1-yl]-4,6-dichloro-2,3-dihydro-1H-inden-1-yl]oxy]benzene)sulfonamido]ethoxy]ethoxy)ethyl]-1H-1,2,3-triazol-4-yl]methyl)-2,3,4,5-tetrahydroxyhexanediamide]: the pIC50 entry at NHE3 [1] and on NHE3 [2] was “C (NHE3 pIC50 > 7)” throughout.
As for `N[C@@H]1CCCN([C@H]2Cc3c(Cl)cc(Cl)cc3[C@@H]2Oc2ccc(S(=O)(=O)NCCCCn3cc(CNC(=O)NCCCCNC(=O)NCc4cn(CCCCNS(=O)(=O)c5ccc(O[C@H]6c7cc(Cl)cc(Cl)c7C[C@@H]6N6CCC[C@@H](N)C6)cc5)nn4)nn3)cc2)C1` [Example 58, 3-[(1-[4-[(4-[[(1S,2S)-2-[(3R)-3-Aminopiperidin-1-yl]-4,6-dichloro-2,3-dihydro-1H-inden-1-yl]oxy]benzene)sulfonamido]butyl]-1H-1,2,3-triazol-4-yl)methyl]-1-[4-([[(1-[4-[(4-[[(1S,2S)-2-[(3R)-3-aminopiperidin-1-yl]-4,6-dichloro-2,3-dihydro-1H-inden-1-yl]oxy]benzene)sulfonamido]butyl]-1H-1,2,3-triazol-4-yl)methyl]carbamoyl]amino)butyl]urea], on NHE3 [1], the “% inhibition” value is “C (>70%)” and the IC50 was < 100 nM. At NHE3 [2], the “% inhibition” value is on record as “C (>70%)” and the IC50 was < 100 nM.
For the compound `N[C@@H]1CCCN([C@H]2Cc3c(Cl)cc(Cl)cc3[C@@H]2Oc2ccc(S(=O)(=O)NCCCCCCn3cc(CNC(=O)NCCCCNC(=O)NCc4cn(CCCCCCNS(=O)(=O)c5ccc(O[C@H]6c7cc(Cl)cc(Cl)c7C[C@@H]6N6CCC[C@@H](N)C6)cc5)nn4)nn3)cc2)C1` [Example 59, 3-[(1-[6-[(4-[[(1S,2S)-2-[(3R)-3-Aminopiperidin-1-yl]-4,6-dichloro-2,3-dihydro-1H-inden-1-yl]oxy]benzene)sulfonamido]-hexyl]-1H-1,2,3-triazol-4-yl)methyl]-1-[4-([[(1-[6-[(4-[[(1S,2S)-2-[(3R)-3-aminopiperidin-1-yl]-4,6-dichloro-2,3-dihydro-1H-inden-1-yl]oxy]benzene)sulfonamido]hexyl]-1H-1,2,3-triazol-4-yl)methyl]carbamoyl]amino)butyl]urea], the “% inhibition” value at NHE3 [1] and at NHE3 [2] was “C (>70%)” each time.
For `CC1(C)O[C@H]2[C@@H](OC(C)(C)O[C@H]2C(=O)NCc2cn(CCCCNS(=O)(=O)c3ccc(O[C@H]4c5cc(Cl)cc(Cl)c5C[C@@H]4N4CCC[C@@H](N)C4)cc3)nn2)[C@@H](C(=O)NCc2cn(CCCCNS(=O)(=O)c3ccc(O[C@H]4c5cc(Cl)cc(Cl)c5C[C@@H]4N4CCC[C@@H](N)C4)cc3)nn2)O1` [Example 60, (4R,4aS,8S,8aR)—N^4,N^8-Bis([1-(4-[4-((1S,2S)-2-[(3R)-3-aminopiperidin-1-yl]-4,6-dichloro-2,3-dihydro-1H-inden-1-yloxy)phenylsulfonamide]butyl)-1H-1,2,3-traizol-4-yl]methyl)-2,2,6,6-tetramethyl-tetrahydro-[1,3]dioxino[5,4-d][1,3]dioxine-4,8-dicarboxamide], on NHE3 [1], the “% inhibition” value is on record as “C (>70%)” and the pIC50 entry is “C (NHE3 pIC50 > 7)”. At NHE3 [2], the “% inhibition” value is listed as “C (>70%)” and the pIC50 entry is recorded as “C (NHE3 pIC50 > 7)”.
